# Experimental data as given in patent US20250101062A1, “ANTIMICROBIAL PEPTIDES” (Board of Regents of the University of Nebraska, priority 2023, published 2025).
# Tested on: S. epidermidis 1457
# Assay: microbe, parasite or virus in culture
# Format: cell-based, Staphylococcus epidermidis
# Conditions: Staphylococcus epidermidis, MHB, Table 8, read-out: Antimicrobial activity (MIC) S. epidermidis 1457
# How it was run: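 Peptides twofold serially diluted against exponential-phase resistant clinical isolates at ~10^5 CFU/mL in MHB (also diluted MHB, TSB or LB in one protocol), CLSI-based broth microdilution. Incubated overnight at 37° C., OD 600 nm read; MIC taken as lowest concentration without growth, reported as ranges.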
smiles,measurement,value
CCCCCCCCCC(=O)N[C@@H](Cc1c[nH]c2ccccc12)C(=O)N[C@H](CC(N)=O)C(=O)N[C@@H](CC(=O)O)C(=O)N[C@@H]1C(=O)NCC(=O)N[C@@H](CCCN)C(=O)N[C@@H](CC(=O)O)C(=O)N[C@H](C)C(=O)N[C@@H](CC(=O)O)C(=O)NCC(=O)N[C@H](CO)C(=O)N[C@@H]([C@H](C)CC(=O)O)C(=O)N[C@@H](CC(=O)c2ccccc2N)C(=O)O[C@@H]1C [Daptomycin],MIC,0.5 to 1 µM
